Test results taken from ChEMBL document CHEMBL1128885, “Resolution and comparative anti-HIV evaluation of the enantiomers of calanolides A and B” (Bioorg Med Chem Lett, 1995).
pEC50: −log10 of the molar value.

Assays:
[1] = system: Human immunodeficiency virus 1; experiment: Effective concentration required for in vitro inhibitory activity against HIV-1; IA is Inactive; type: functional, organism-based
[2] = system: Human immunodeficiency virus 1; experiment: Effective concentration required for in vitro inhibitory activity against HIV-1; type: functional, organism-based

| EC50 [1] | pEC50 [2] | SMILES |
| --- | --- | --- |
| Not Active | – | CCCc1cc(=O)oc2c3c(c4c(c12)OC(C)(C)C=C4)O[C@@H](C)[C@H](C)[C@H]3O [(-)-CALANOLIDE A] |
| – | 6.70 | CCCc1cc(=O)oc2c3c(c4c(c12)OC(C)(C)C=C4)O[C@H](C)[C@@H](C)[C@@H]3O [CALANOLIDE A] |
| Not Active | – | CCCc1cc(=O)oc2c3c(c4c(c12)OC(C)(C)C=C4)O[C@H](C)[C@@H](C)[C@H]3O [(+)-CALANOLIDE B] |
| – | 6.52 | CCCc1cc(=O)oc2c3c(c4c(c12)OC(C)(C)C=C4)O[C@@H](C)[C@H](C)[C@@H]3O [COSTATOLIDE] |
